Patent publication US20260092071A1, “COMPOUNDS AND COMPOSITIONS AS SMARCA2/4 DEGRADERS AND USES THEREOF” (REGENTS OF THE UNIVERSITY OF MICHIGAN, priority 2022, published 2026)

Key:
Assay type in all cases: cell-based
SMARCA2 [1] = molecular target: T1, SMARCA2 (Homo sapiens, UniProt P51531); experiment: HiBit assay in engineered HT1080 CRISPR knock-in cell, 6 hrs (B series), SMARCA2; settings: 6 hrs incubation; for DC50: read-out: SMARC A2 HT1080 HiBit DC50; for Dmax: HT-1080, HT1080 CRISPR knock-in cells, read-out: SMARC A2 HT1080 HiBit Dmax (%)
Experimental: (§1) The HiBit assay was performed using engineered HT1080 CRISPR knock-in cell utilizing the Nano-Glo HiBiT Lytic Detection System from Promega, Cat #N3040. Compounds were transferred, 25 nL DMSO or test compounds (final DMSO @ 0.1%) to intermediate plates (Corning3570) using ECHO550. Cells were seeded onto compounds at 2000 cells/25 μL/well and incubated for 6 hrs in a tissue culture incubator at 37° C. and 5% CO2. The LgBiT Protein was diluted at 1:100 and the Nano-Glo® HiBIT Lytic Substrate 1:50 into an appropriate volume of room temperature using the Nano-Glo® HiBiT Lytic Buffer. At the end of compound incubation time, 15 ul of the detection reagent was added to each well (without LgBiT for negative control wells) using the Thermo Scientific multidrop combi. The plate was shaken for 10 mins at RT using Combi. After briefly centrifugation (2000 rpm 1 mins), plate was read on Envision (Ultrasensitive luminescence model).

SMARCA4 = SMARCA4 (Homo sapiens, UniProt P51532); experiment: HiBit assay in engineered HT1080 CRISPR knock-in cell, 6 hrs (B series), SMARCA4; settings: 6 hrs incubation; for DC50: read-out: SMARC A4 HT1080 HiBit DC50; for Dmax: HT-1080, HT1080 CRISPR knock-in cells, read-out: SMARC A4 HT1080 HiBit Dmax(%)
Experimental: as §1

SMARCA2 [2] = molecular target: T1, SMARCA2; experiment: HiBiT assay for protein degradation, Hela SMARCA2-HiBiT cells (A series); parameters: Hela cells were genetically modified via CRISPR/Cas9 to fuse HiBiT to the carboxy terminus of SMARCA2; host or cells: HeLa (CRISPR/Cas9 HiBiT knock-in); settings: Hela SMARCA2-HiBiT cells, 24 hours treatment; for Dmax: read-out: SMARC A2 Hela HiBit Dmax (%); for DC50: read-out: SMARC A2 Hela HiBit DC50;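 on SMARC A2 Hela HiBit Dmax (%): 24 h compound treatment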
Experimental: Hela cells were genetically modified via CRISPR/Cas9 to fuse HiBiT to the carboxy terminus of SMARCA2 (Promega CS302365) or SMARCA4 (Promega CS3023225). Cells were cultured in DMEM containing 10% FBS and 1% (Vol:Vol) penicillin-streptomycin. […] At the end of experiment, levels of SMARCA2 or SMARCA4 expression were assessed with Nano-Glo® HiBiT Lytic Detection Assay (Promega N3050). IC50 was obtained using the GraphPad Prism data analysis software.

Sequence of SMARCA4 (P51532 whole entry): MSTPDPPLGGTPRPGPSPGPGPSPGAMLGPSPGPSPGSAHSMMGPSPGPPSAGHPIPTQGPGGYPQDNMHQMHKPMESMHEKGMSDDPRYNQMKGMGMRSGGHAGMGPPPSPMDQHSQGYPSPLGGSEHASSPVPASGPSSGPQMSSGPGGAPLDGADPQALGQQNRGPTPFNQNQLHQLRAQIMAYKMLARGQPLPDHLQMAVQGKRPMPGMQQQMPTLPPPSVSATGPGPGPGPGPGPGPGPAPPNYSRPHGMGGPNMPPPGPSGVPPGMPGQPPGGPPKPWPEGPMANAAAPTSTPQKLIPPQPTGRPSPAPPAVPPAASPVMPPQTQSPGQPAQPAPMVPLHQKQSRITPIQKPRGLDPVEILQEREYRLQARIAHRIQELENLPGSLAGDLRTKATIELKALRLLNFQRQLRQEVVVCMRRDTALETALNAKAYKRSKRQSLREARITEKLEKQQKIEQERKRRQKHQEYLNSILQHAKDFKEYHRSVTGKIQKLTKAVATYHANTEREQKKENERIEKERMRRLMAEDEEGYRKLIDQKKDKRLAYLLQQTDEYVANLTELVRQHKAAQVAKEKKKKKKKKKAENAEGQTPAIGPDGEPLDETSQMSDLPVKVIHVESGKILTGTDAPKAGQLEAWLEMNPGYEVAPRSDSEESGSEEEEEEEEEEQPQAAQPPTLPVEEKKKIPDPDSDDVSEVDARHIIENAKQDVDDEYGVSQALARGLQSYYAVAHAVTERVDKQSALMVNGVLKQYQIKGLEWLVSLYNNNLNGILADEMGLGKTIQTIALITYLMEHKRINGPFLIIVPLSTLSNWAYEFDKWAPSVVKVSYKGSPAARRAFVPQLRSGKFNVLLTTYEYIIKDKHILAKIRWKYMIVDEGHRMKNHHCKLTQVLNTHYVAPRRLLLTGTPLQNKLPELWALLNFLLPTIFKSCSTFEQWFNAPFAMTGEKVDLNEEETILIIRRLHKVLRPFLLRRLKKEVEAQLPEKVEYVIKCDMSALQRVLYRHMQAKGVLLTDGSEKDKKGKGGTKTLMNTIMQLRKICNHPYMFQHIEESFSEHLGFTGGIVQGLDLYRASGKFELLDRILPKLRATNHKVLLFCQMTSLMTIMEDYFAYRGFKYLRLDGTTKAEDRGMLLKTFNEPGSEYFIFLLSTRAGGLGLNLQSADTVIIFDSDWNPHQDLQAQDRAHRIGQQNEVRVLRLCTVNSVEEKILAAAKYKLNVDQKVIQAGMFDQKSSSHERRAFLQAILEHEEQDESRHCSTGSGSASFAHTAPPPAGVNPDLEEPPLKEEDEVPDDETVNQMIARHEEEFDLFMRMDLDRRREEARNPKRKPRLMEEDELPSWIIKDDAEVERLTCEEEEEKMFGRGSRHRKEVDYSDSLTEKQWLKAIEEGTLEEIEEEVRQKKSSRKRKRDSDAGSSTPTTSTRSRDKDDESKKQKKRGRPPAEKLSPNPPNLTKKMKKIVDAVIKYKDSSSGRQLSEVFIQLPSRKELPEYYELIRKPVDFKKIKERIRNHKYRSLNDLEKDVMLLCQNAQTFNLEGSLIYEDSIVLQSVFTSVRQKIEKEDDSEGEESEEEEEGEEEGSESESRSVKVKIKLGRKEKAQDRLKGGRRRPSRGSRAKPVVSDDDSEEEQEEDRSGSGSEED
T1 sequence (P51531 whole entry): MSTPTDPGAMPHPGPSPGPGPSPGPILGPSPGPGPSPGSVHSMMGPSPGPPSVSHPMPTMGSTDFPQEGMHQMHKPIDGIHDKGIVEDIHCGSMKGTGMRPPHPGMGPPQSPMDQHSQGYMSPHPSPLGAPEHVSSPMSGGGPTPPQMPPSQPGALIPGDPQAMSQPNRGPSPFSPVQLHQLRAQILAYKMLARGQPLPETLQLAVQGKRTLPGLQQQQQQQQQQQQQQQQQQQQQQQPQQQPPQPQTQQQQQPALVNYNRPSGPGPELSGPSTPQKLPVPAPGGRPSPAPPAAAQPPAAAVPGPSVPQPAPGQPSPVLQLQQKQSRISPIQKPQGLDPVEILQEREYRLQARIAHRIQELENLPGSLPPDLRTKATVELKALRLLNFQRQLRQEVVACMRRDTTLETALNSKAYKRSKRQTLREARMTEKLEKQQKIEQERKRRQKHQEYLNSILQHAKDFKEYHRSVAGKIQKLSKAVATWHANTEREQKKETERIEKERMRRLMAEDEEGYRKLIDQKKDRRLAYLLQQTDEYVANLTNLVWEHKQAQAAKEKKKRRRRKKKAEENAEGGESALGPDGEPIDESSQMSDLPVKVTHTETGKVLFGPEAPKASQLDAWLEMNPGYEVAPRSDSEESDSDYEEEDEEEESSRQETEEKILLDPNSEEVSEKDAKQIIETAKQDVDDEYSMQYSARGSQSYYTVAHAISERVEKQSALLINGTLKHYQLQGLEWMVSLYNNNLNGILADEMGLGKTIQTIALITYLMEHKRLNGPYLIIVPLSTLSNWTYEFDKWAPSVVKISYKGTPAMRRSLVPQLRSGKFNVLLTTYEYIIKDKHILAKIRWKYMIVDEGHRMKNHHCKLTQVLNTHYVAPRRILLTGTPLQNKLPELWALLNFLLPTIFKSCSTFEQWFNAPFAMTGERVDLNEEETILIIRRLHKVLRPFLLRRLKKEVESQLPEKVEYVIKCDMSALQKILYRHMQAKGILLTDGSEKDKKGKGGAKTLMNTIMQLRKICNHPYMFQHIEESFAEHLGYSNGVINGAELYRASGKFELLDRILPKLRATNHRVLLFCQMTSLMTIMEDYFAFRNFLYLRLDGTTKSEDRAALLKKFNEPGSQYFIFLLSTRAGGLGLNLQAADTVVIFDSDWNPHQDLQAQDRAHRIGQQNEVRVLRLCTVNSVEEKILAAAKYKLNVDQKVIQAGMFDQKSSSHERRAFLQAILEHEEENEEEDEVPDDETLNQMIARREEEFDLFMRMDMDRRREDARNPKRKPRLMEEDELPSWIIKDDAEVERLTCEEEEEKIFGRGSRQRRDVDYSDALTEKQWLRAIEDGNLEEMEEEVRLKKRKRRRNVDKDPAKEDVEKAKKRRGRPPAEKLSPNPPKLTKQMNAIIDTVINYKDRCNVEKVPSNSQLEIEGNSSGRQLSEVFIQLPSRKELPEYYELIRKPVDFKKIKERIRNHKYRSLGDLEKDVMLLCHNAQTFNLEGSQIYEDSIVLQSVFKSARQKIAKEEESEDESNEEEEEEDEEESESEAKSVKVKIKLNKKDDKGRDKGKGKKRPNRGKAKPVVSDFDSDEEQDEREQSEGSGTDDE

| Structure (SMILES) | SMARC A2 HT1080 HiBit Dmax (%) (SMARCA2 [1]; HT1080 CRISPR knock-in cells) | DC50 (SMARCA2 [1]; HT1080 CRISPR knock-in cells) | SMARC A4 HT1080 HiBit Dmax(%) (SMARCA4; HT1080 CRISPR knock-in cells) | DC50 (SMARCA4; HT1080 CRISPR knock-in cells) | Dmax (SMARCA2 [1]) | Dmax (SMARCA4) | Dmax (SMARCA2 [2]) | DC50 (SMARCA2 [2]) |
| --- | --- | --- | --- | --- | --- | --- | --- | --- |
| Cc1ncsc1-c1ccc([C@H](C)NC(=O)[C@@H]2C[C@@H](O)CN2C(=O)[C@@H](c2cc(OCCCCn3cc(-c4ccc5c(c4)-n4c(nc(=O)c6c(Cl)cccc64)C5(C)C)cn3)no2)C(C)C)cc1 [Compound B97, (2S,4R)-1-((R)-2-(3-(4-(4-(4-chloro-7,7-dimethyl-5-oxo-5,7-dihydroindolo[1,2-a]quinazolin-10-yl)-1H-pyrazol-1-yl)butoxy)isoxazol-5-yl)-3-methylbutanoyl)-4-hydroxy-N-((S)-1-(4-(4-methylthiazol-5-yl)phenyl)ethyl)pyrrolidine-2-carboxamide] | – | 100 to 500 nM | – | 100 to 500 nM | 50 to 69% | < 50% | – | – |
| Cc1ncsc1-c1ccc([C@H](CN2CCOCC2)NC(=O)[C@@H]2C[C@@H](O)CN2C(=O)[C@@H](n2cc([C@H]3CC[C@H](CN4CCC(c5ccc6c(c5)-n5c(nc(=O)c7c(Br)cccc75)C65CCCCC5)CC4)CC3)nn2)C(C)(C)C)cc1 [Compound B112, (2S,4R)-1-((S)-2-(4-((1r,4S)-4-((4-(4′-bromo-5′-oxo-5′H-spiro[cyclohexane-1,7′-indolo[1,2-a]quinazolin]-10′-yl)piperidin-1-yl)methyl)cyclohexyl)-1H-1,2,3-triazol-1-yl)-3,3-dimethylbutanoyl)-4-hydroxy-N-((R)-1-(4-(4-methylthiazol-5-yl)phenyl)-2-morpholinoethyl)pyrrolidine-2-carboxamide] | – | < 100 nM | – | – | > 90% | – | – | – |
| COCCOCCOCC[C@H](NC(=O)[C@@H]1C[C@@H](O)CN1C(=O)[C@@H](n1cc([C@H]2CC[C@H](CN3CCC(c4ccc5c(c4)-n4c(nc(=O)c6c(Cl)cccc64)C54CCCCC4)CC3)CC2)nn1)C(C)(C)C)c1ccc(-c2scnc2C)cc1 [Compound A82, (2S,4R)-1-((S)-2-(4-((1r,4S)-4-((4-(4′-chloro-5′-oxo-5′H-spiro[cyclohexane-1,7′-indolo[1,2-a]quinazolin]-10′-yl)piperidin-1-yl)methyl)cyclohexyl)-1H-1,2,3-triazol-1-yl)-3,3-dimethylbutanoyl)-4-hydroxy-N—((S)-3-(2-(2-methoxyethoxy)ethoxy)-1-(4-(4-methylthiazol-5-yl)phenyl)propyl)pyrrolidine-2-carboxamide] | – | – | – | – | – | – | > 90% | < 10 nM |
| Cc1ncsc1-c1ccc([C@H](CCN2CC(C)(O)C2)NC(=O)[C@@H]2C[C@@H](O)CN2C(=O)[C@@H](n2cc([C@H]3CC[C@H](CN4CCC(c5ccc6c(c5)-n5c(nc(=O)c7c(Cl)cccc75)C65CCCCC5)CC4)CC3)nn2)C(C)(C)C)cc1 [Compound A80, (2S,4R)-1-((S)-2-(4-((1r,4S)-4-((4-(4′-chloro-5′-oxo-5′H-spiro[cyclohexane-1,7′-indolo[1,2-a]quinazolin]-10′-yl)piperidin-1-yl)methyl)cyclohexyl)-1H-1,2,3-triazol-1-yl)-3,3-dimethylbutanoyl)-4-hydroxy-N—((S)-3-(3-hydroxy-3-methylazetidin-1-yl)-1-(4-(4-methylthiazol-5-yl)phenyl)propyl)pyrrolidine-2-carboxamide] | – | – | – | – | – | – | 70 to 90% | 10 to 100 nM |
| Cc1ncsc1-c1ccc([C@H](CCN2CC(C)(F)C2)NC(=O)[C@@H]2C[C@@H](O)CN2C(=O)[C@@H](n2cc([C@H]3CC[C@H](CN4CCC(c5ccc6c(c5)-n5c(nc(=O)c7c(Cl)cccc75)C65CCCCC5)CC4)CC3)nn2)C(C)(C)C)cc1 [Compound A79, (2S,4R)-1-((S)-2-(4-((1r,4S)-4-((4-(4′-chloro-5′-oxo-5′H-spiro[cyclohexane-1,7′-indolo[1,2-a]quinazolin]-10′-yl)piperidin-1-yl)methyl)cyclohexyl)-1H-1,2,3-triazol-1-yl)-3,3-dimethylbutanoyl)-N—((S)-3-(3-fluoro-3-methylazetidin-1-yl)-1-(4-(4-methylthiazol-5-yl)phenyl)propyl)-4-hydroxypyrrolidine-2-carboxamide] | – | – | – | – | – | – | 70 to 90% | < 10 nM |
| Cc1ncsc1-c1ccc([C@H](CN2CCOCC2)NC(=O)[C@@H]2C[C@@H](O)CN2C(=O)[C@@H](n2cc([C@H]3CC[C@H](CN4CCC(c5ccc6c(n5)-n5c(nc(=O)c7c(Br)cccc75)C65CCCCC5)CC4)CC3)nn2)C(C)(C)C)cc1 [Compound A52, (2S,4R)-1-((S)-2-(4-((1r,4S)-4-((4-(4′-bromo-5′-oxo-5′H-spiro[cyclohexane-1,7′-pyrido[3′,2′: 4,5]pyrrolo[1,2-a]quinazolin]-10′-yl)piperidin-1-yl)methyl)cyclohexyl)-1H-1,2,3-triazol-1-yl)-3,3-dimethylbutanoyl)-4-hydroxy-N—((R)-1-(4-(4-methylthiazol-5-yl)phenyl)-2-morpholinoethyl)pyrrolidine-2-carboxamide] | – | – | – | – | – | – | 70 to 90% | < 100 nM |
| Cc1ncsc1-c1ccc([C@H](CN2CCOCC2)NC(=O)[C@@H]2C[C@@H](O)CN2C(=O)[C@@H](n2cc(C3CCC(CN4CCC(c5ccc6c(c5)-n5c(nc(=O)c7ccccc75)C65CCCCC5)CC4)CC3)nn2)C(C)(C)C)cc1 (stereo partly drawn) [Compound A170, (2S,4R)-1-((S)-3,3-dimethyl-2-(4-(4-((4-(5′-oxo-5′H-spiro[cyclohexane-1,7′-indolo[1,2-a]quinazolin]-10′-yl)piperidin-1-yl)methyl)cyclohexyl)-1H-1,2,3-triazol-1-yl)butanoyl)-4-hydroxy-N—((R)-1-(4-(4-methylthiazol-5-yl)phenyl)-2-morpholinoethyl)pyrrolidine-2-carboxamide] | – | – | – | – | – | – | < 50% | > 1000 nM |

More lines, now with the values ahead:

| SMARC A2 HT1080 HiBit Dmax (%) (SMARCA2 [1]; HT1080 CRISPR knock-in cells) | DC50 (SMARCA2 [1]; HT1080 CRISPR knock-in cells) | SMARC A4 HT1080 HiBit Dmax(%) (SMARCA4; HT1080 CRISPR knock-in cells) | DC50 (SMARCA4; HT1080 CRISPR knock-in cells) | Dmax (SMARCA2 [1]) | Dmax (SMARCA4) | Dmax (SMARCA2 [2]) | DC50 (SMARCA2 [2]) | Structure (SMILES) |
| --- | --- | --- | --- | --- | --- | --- | --- | --- |
| B (B (70-90% degradation)) | < 100 nM | D (D (<50% degradation)) | 100 to 500 nM | – | – | – | – | Cc1ncsc1-c1ccc([C@H](C)NC(=O)[C@@H]2C[C@@H](O)CN2C(=O)[C@@H](c2cc(OC3CCC(Cn4cc(-c5ccc6c(c5)-n5c(nc(=O)c7c(Cl)cccc75)C6(C)C)cn4)CC3)no2)C(C)C)cc1 (stereo partly drawn) [Compound B96, (2S,4R)-1-((R)-2-(3-((4-((4-(4-chloro-7,7-dimethyl-5-oxo-5,7-dihydroindolo[1,2-a]quinazolin-10-yl)-1H-pyrazol-1-yl)methyl)cyclohexyl)oxy)isoxazol-5-yl)-3-methylbutanoyl)-4-hydroxy-N-((S)-1-(4-(4-methylthiazol-5-yl)phenyl)ethyl)pyrrolidine-2-carboxamide] |
| – | < 100 nM | – | < 100 nM | > 90% | 70 to 90% | – | – | Cc1ncsc1-c1ccc([C@H](C)NC(=O)[C@@H]2C[C@@H](O)CN2C(=O)C(c2cc(N3CCC(c4ccc5c(c4)C(C)(C)c4nc(=O)c6c(Cl)cccc6n4-5)CC3)no2)C(C)C)cc1 (stereo partly drawn) [Compound B42, (2S,4R)-1-(2-(3-(4-(4-chloro-7,7-dimethyl-5-oxo-5,7-dihydroindolo[1,2-a]quinazolin-9-yl)piperidin-1-yl)isoxazol-5-yl)-3-methylbutanoyl)-4-hydroxy-N—((S)-1-(4-(4-methylthiazol-5-yl)phenyl)ethyl)pyrrolidine-2-carboxamide] |
| – | < 100 nM | – | < 100 nM | > 90% | 70 to 90% | – | – | Cc1cc(C(C(=O)N2C[C@H](O)C[C@H]2C(=O)N[C@@H](CN2CCC(N3CCC(c4cccc5c4C(C)(C)c4nc(=O)c6c(Cl)cccc6n4-5)CC3)CC2)c2ccc(-c3scnc3C)cc2)C(C)C)on1 (stereo partly drawn) [Compound B155, (2S,4R)-N-((R)-2-(4-(4-chloro-7,7-dimethyl-5-oxo-5,7-dihydroindolo[1,2-a]quinazolin-8-yl)-[1,4'-bipiperidin]-1'-yl)-1-(4-(4-methylthiazol-5-yl)phenyl)ethyl)-4-hydroxy-1-(3-methyl-2-(3-methylisoxazol-5-yl)butanoyl)pyrrolidine-2-carboxamide] |
| – | < 100 nM | – | < 100 nM | > 90% | 70 to 90% | – | – | Cc1ncsc1-c1ccc([C@H](C)NC(=O)[C@@H]2C[C@@H](O)CN2C(=O)[C@H](C(C)C)n2cc(C3CCN(CCN4CCC(c5ccc6c(c5)-n5c(nc(=O)c7c(Cl)cccc75)C6(C)C)CC4)CC3)nn2)cc1 [Compound B67, (2S,4R)-1-((S)-2-(4-(1-(2-(4-(4-chloro-7,7-dimethyl-5-oxo-5,7-dihydroindolo[1,2-a]quinazolin-10-yl)piperidin-1-yl)ethyl)piperidin-4-yl)-1H-1,2,3-triazol-1-yl)-3-methylbutanoyl)-4-hydroxy-N-((S)-1-(4-(4-methylthiazol-5-yl)phenyl)ethyl)pyrrolidine-2-carboxamide] |
